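Method: 48-hour compound exposure of cells in 96-well plates, five concentrations, linear interpolation of endpoints. Abbreviation: GI50, concentration required for 50% inhibition of growth.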 Activity calls are given as the source filed them. Cut-off read from the data, not from the text of the source: active = GI50 up to about 1.1 µM and inactive = higher.
What was measured:
Test in all cases: inhibition of tumour cell growth, NCI panel, 48 h
HOP-92 = system: HOP-92
OVCAR-5 = system: OVCAR-5
SK-MEL-5 = system: SK-MEL-5
HOP-62 = system: HOP-62
SW-620 = system: SW-620
NCI-H226 = system: NCI-H226
UO-31 = system: UO-31
SF-539 = system: SF-539
ACHN = system: ACHN
DLD-1 = system: DLD-1
RXF 393 = system: RXF 393
LXFL 529 = system: LXFL 529
SK-MEL-2 = system: SK-MEL-2
KM12 = system: KM12
NCI-H522 = system: NCI-H522

| SMILES | GI50 (HOP-92) | GI50 (OVCAR-5) | GI50 (SK-MEL-5) | GI50 (HOP-62) | GI50 (SW-620) | GI50 (NCI-H226) | GI50 (UO-31) | GI50 (SF-539) | GI50 (ACHN) | GI50 (DLD-1) | GI50 (RXF 393) | GI50 (LXFL 529) | GI50 (SK-MEL-2) | GI50 (KM12) | GI50 (NCI-H522) |
| --- | --- | --- | --- | --- | --- | --- | --- | --- | --- | --- | --- | --- | --- | --- | --- |
| CC1(C(=O)O)CCOc2ccccc21 (centres undefined) | > 100 µM (inactive) | > 100 µM (inactive) | > 100 µM (inactive) | > 100 µM (inactive) | > 100 µM (inactive) | > 100 µM (inactive) | > 100 µM (inactive) | > 100 µM (inactive) | > 100 µM (inactive) | > 100 µM (inactive) | > 100 µM (inactive) | > 100 µM (inactive) |  |  |  |
| CC(=O)OCCOCNC(=S)N/N=C/c1ccc2ccccc2n1 |  | 14.3 µM (inactive) | 23.9 µM (inactive) | 45.1 µM (inactive) | 36.1 µM (inactive) | > 100 µM (inactive) | 31.2 µM (inactive) | 46.9 µM (inactive) | 23 µM (inactive) | 54.1 µM (inactive) | 46.2 µM (inactive) | 33.3 µM (inactive) | > 100 µM (inactive) | 55.7 µM (inactive) | 14.1 µM (inactive) |
| COc1ccc(NC(=O)C2C(=O)N(c3ccc(OC)cc3)C(=O)/C2=N\N)cc1 (centres undefined) | > 100 µM (inactive) | > 100 µM (inactive) | > 100 µM (inactive) | > 100 µM (inactive) | > 100 µM (inactive) |  | > 100 µM (inactive) | > 100 µM (inactive) | > 100 µM (inactive) | > 100 µM (inactive) | > 100 µM (inactive) | > 100 µM (inactive) | > 100 µM (inactive) | > 100 µM (inactive) | > 100 µM (inactive) |
| CSc1ccc(OCC2OC2O)cc1 (centres undefined) | > 58.2 µM (inactive) | > 94.6 µM (inactive) | 16 µM (inactive) | > 100 µM (inactive) | 18.4 µM (inactive) | 36.8 µM (inactive) | 51.6 µM (inactive) | 74.8 µM (inactive) | 40.5 µM (inactive) | 45.7 µM (inactive) | > 63.7 µM (inactive) | 29 µM (inactive) | > 77.1 µM (inactive) | 36.2 µM (inactive) | 23.8 µM (inactive) |
| COC(=O)/C([Se]c1c(C)cc(C)cc1C)=C(/[Se]c1c(C)cc(C)cc1C)C(=O)OC | 68.4 µM (inactive) | > 100 µM (inactive) | 86.3 µM (inactive) | > 100 µM (inactive) | > 100 µM (inactive) | > 100 µM (inactive) | > 100 µM (inactive) | > 100 µM (inactive) | > 100 µM (inactive) | > 100 µM (inactive) | > 100 µM (inactive) | > 100 µM (inactive) | > 100 µM (inactive) | > 100 µM (inactive) | > 100 µM (inactive) |
| O=C1/C(=C/c2ccccc2)CN(C(=O)Oc2ccc(Cl)cc2)C/C1=C\c1ccccc1 | 21.8 µM (inactive) | 10.9 µM (inactive) | 1.68 µM (inactive) | 10 µM (inactive) | 1.22 µM (inactive) | 5.74 µM (inactive) | 4.75 µM (inactive) | 2.36 µM (inactive) | 3.03 µM (inactive) | 1.11 µM (active) | 2.17 µM (inactive) | 1.72 µM (inactive) | 11.5 µM (inactive) | 1.49 µM (inactive) | 2.25 µM (inactive) |
| O=C(CSc1nc(-c2ccccc2)c(-c2ccccc2)[nH]1)N/N=C/c1ccc([N+](=O)[O-])cc1 | 13.8 µM (inactive) |  | 17.3 µM (inactive) | 17.7 µM (inactive) |  | 13.6 µM (inactive) | 14.7 µM (inactive) | 16 µM (inactive) | 26.7 µM (inactive) | 18.1 µM (inactive) |  | 20.4 µM (inactive) | 13.8 µM (inactive) | 17.3 µM (inactive) | 14.5 µM (inactive) |
| CCN1CCC(O)(/C=C/c2ccc(Cl)cc2)C(C(=O)/C=C/c2ccc(Cl)cc2)C1 (centres undefined) |  | 30.8 µM (inactive) | 13.5 µM (inactive) | > 100 µM (inactive) | 21.2 µM (inactive) | 20.8 µM (inactive) | 31.3 µM (inactive) |  | 33 µM (inactive) | 16.5 µM (inactive) |  | 14.7 µM (inactive) | 69.3 µM (inactive) | 15.2 µM (inactive) | 28.4 µM (inactive) |
| CC1CC2OC(=O)C3CC(O)CC(=C23)[C@@]12C[C@@H](c1ccoc1)OC2=O (some centres undefined) | > 100 µM (inactive) | > 100 µM (inactive) | > 100 µM (inactive) |  | > 100 µM (inactive) | > 100 µM (inactive) | > 100 µM (inactive) | > 100 µM (inactive) | > 100 µM (inactive) | > 100 µM (inactive) | > 100 µM (inactive) | > 100 µM (inactive) | > 100 µM (inactive) | > 100 µM (inactive) | > 100 µM (inactive) |
| Ic1cc2c(cc1C1SCCCS1)OCO2 | > 100 µM (inactive) | > 100 µM (inactive) | > 100 µM (inactive) | > 100 µM (inactive) | > 100 µM (inactive) | > 100 µM (inactive) | > 100 µM (inactive) | > 100 µM (inactive) | > 100 µM (inactive) | > 100 µM (inactive) | > 100 µM (inactive) | > 100 µM (inactive) | > 100 µM (inactive) | > 100 µM (inactive) | > 100 µM (inactive) |
| CC(=O)OCCOCNC(=S)N/N=C/c1cc([N+](=O)[O-])ccc1O | > 100 µM (inactive) | > 100 µM (inactive) | > 100 µM (inactive) | > 100 µM (inactive) | 84.9 µM (inactive) | > 100 µM (inactive) | > 100 µM (inactive) | > 100 µM (inactive) | > 100 µM (inactive) | > 100 µM (inactive) | > 100 µM (inactive) | 93.8 µM (inactive) | > 100 µM (inactive) | > 100 µM (inactive) | 30.5 µM (inactive) |
| O=c1c2cc(Br)ccc2nc(CCl)n1-c1ccc(O)c([N+](=O)[O-])c1 | 29.2 µM (inactive) | 63.5 µM (inactive) | 15.9 µM (inactive) | 20.9 µM (inactive) | 19.2 µM (inactive) | 14.5 µM (inactive) | 15.5 µM (inactive) | 19.2 µM (inactive) | 26.4 µM (inactive) | 17.7 µM (inactive) | 12.9 µM (inactive) | 20.9 µM (inactive) | 16 µM (inactive) | 19 µM (inactive) | 18.8 µM (inactive) |
| C[P+]1(c2ccccc2)CCCCC1 |  | > 100 µM (inactive) | > 100 µM (inactive) | > 100 µM (inactive) | > 100 µM (inactive) |  | > 100 µM (inactive) | > 100 µM (inactive) | > 100 µM (inactive) | > 100 µM (inactive) | > 100 µM (inactive) | > 100 µM (inactive) | > 100 µM (inactive) | > 100 µM (inactive) |  |
| C/C=C(\C)c1cc(O)c(C)c2c1Oc1cc(O)c(Cl)c(C)c1C(=O)O2 |  | 16.6 µM (inactive) | 13.9 µM (inactive) | 27.7 µM (inactive) | 19.6 µM (inactive) | 18.5 µM (inactive) | 13.5 µM (inactive) | 20 µM (inactive) | 22.2 µM (inactive) | 17.4 µM (inactive) | 18.8 µM (inactive) | 24.8 µM (inactive) | 21.5 µM (inactive) | 20.9 µM (inactive) | 19.4 µM (inactive) |
| CCC12C=CCN3CC[C@]4(C(=C(C(=O)OC)[C@@H]1Nc1ncnc5c1ncn5C1OC(COC(C)=O)C(OC(C)=O)C1OC(C)=O)Nc1ccccc14)C32 (some centres undefined) | 2.39 µM (inactive) | 3.47 µM (inactive) | 2.55 µM (inactive) | 2.84 µM (inactive) | 2.45 µM (inactive) | 2.36 µM (inactive) | 5.62 µM (inactive) | 2.18 µM (inactive) | 2.34 µM (inactive) | 2.69 µM (inactive) | 2 µM (inactive) | 2.4 µM (inactive) | 3.44 µM (inactive) | 2.42 µM (inactive) | 1.7 µM (inactive) |
| CN(/N=C/c1cccc2cccnc12)c1ccc([N+](=O)[O-])cc1 | > 100 µM (inactive) | > 100 µM (inactive) | > 100 µM (inactive) | > 100 µM (inactive) | > 100 µM (inactive) | > 100 µM (inactive) |  | 7.69 µM (inactive) | > 100 µM (inactive) | > 100 µM (inactive) | > 100 µM (inactive) | > 100 µM (inactive) | > 100 µM (inactive) | > 100 µM (inactive) |  |
| C=C1CCc2occ(C)c2C2C1C1=C(CC(C)C1=O)C1OC12C (centres undefined) | > 100 µM (inactive) | 21.8 µM (inactive) | 52.2 µM (inactive) | > 100 µM (inactive) | > 100 µM (inactive) | > 100 µM (inactive) | 4.03 µM (inactive) | > 100 µM (inactive) | > 100 µM (inactive) | > 100 µM (inactive) | > 100 µM (inactive) | > 100 µM (inactive) | > 100 µM (inactive) | > 100 µM (inactive) | 44.8 µM (inactive) |
| CC(C)N(C(=O)C12C3C4C5(C#N)C3C1(C#N)C5C42C#N)C(C)C (centres undefined) |  | > 100 µM (inactive) | > 100 µM (inactive) | > 100 µM (inactive) | > 100 µM (inactive) | > 100 µM (inactive) | > 100 µM (inactive) | > 100 µM (inactive) | > 100 µM (inactive) | > 100 µM (inactive) |  | > 100 µM (inactive) | > 100 µM (inactive) | > 100 µM (inactive) | > 100 µM (inactive) |
| C(=N\OCc1ccccc1)/c1ncccc1C1OCCO1 | > 100 µM (inactive) | > 100 µM (inactive) | > 100 µM (inactive) | > 100 µM (inactive) | > 100 µM (inactive) |  | > 100 µM (inactive) | > 100 µM (inactive) | > 100 µM (inactive) | > 100 µM (inactive) | > 100 µM (inactive) | > 100 µM (inactive) | > 100 µM (inactive) | > 100 µM (inactive) | > 100 µM (inactive) |

Source: ChEMBL document CHEMBL1201862, “PubChem BioAssay data set” (2004)
